The subject of this assay is P388 leukemia ip, CD2F1 mice, survival T/C. Kind of assay: NCI In Vivo Anticancer Drug Screen. Data for tumor model P388 Leukemia (intraperitoneal) in CD2F1 (CDF1) mice. As to conditions: endpoint: median survival time, higher = longer survival. A digest of the protocol: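 Mice carrying the transplanted tumor received test compound or vehicle. Survival was recorded in each group, and the value is the treated-group measurement divided by that of the vehicle-treated control group.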

The mark [1] stands for this setting: dose: 50.0 mg/kg/injection, schedule: Q01DX009 (ip), vehicle: Klucel (hydroxypropylcellulose) (HPC).
The mark [2] stands for this setting: dose: 100.0 mg/kg/injection, schedule: Q01DX009 (ip), vehicle: Klucel (hydroxypropylcellulose) (HPC).
Setting [3] is: dose: 200.0 mg/kg/injection, schedule: Q01DX009 (ip), vehicle: Klucel (hydroxypropylcellulose) (HPC).
Where [4] appears, read: dose: 25.0 mg/kg/injection, schedule: Q01DX009 (ip), vehicle: saline.
[5] abbreviates: dose: 50.0 mg/kg/injection, schedule: Q01DX009 (ip), vehicle: saline.
[6] abbreviates: dose: 50.0 mg/kg/injection, schedule: Q01DX005 (ip), vehicle: saline with Tween-80.
Setting [7] is: dose: 100.0 mg/kg/injection, schedule: Q01DX005 (ip), vehicle: saline with Tween-80.

Drawing on PubChem BioAssay AID330 (DTP/NCI, 2004), this text covers T/C for 21 molecules.

Molecules are shown by their SMILES. Where “and” joins values, the source holds several entries; their conditions need not be identical. Equal values may be shown once. Toxic doses and inconclusive results are not listed.

Regarding `COCC(=O)c1ccc(C#N)cc1`, the T/C was 100 % of control (dose: 100.0 mg/kg/injection, schedule: Q04DX003 (ip), vehicle: saline); 100 % of control (dose: 200.0 mg/kg/injection, schedule: Q04DX003 (ip), vehicle: saline); 100 % of control (dose: 400.0 mg/kg/injection, schedule: Q04DX003 (ip), vehicle: saline).
`CNC(=O)Oc1cccc2c(OC3OC(CO)C(O)C(O)C3O)cccc12` (stereo not drawn): the T/C runs as follows: (dose: 100.0 mg/kg/injection, schedule: Q04DX003 (ip), vehicle: Klucel (hydroxypropylcellulose) (HPC)) 97 % of control; (dose: 200.0 mg/kg/injection, schedule: Q04DX003 (ip), vehicle: Klucel (hydroxypropylcellulose) (HPC)) 106 % of control; (dose: 400.0 mg/kg/injection, schedule: Q04DX003 (ip), vehicle: Klucel (hydroxypropylcellulose) (HPC)) 101 % of control.
On to `C=C1C[C@](OC)([C@H](O)C(=O)N[C@@H](OC)[C@@H]2C[C@@H](O)C(C)(C)[C@@H](C[C@@H](COC)OC)O2)O[C@H](C)[C@@H]1C`, for which the T/C is 153 % of control (dose: 6.2 micrograms/kg/injection, schedule: Q01DX005 (ip), vehicle: Klucel (hydroxypropylcellulose) (HPC)); 152 % of control (dose: 12.5 micrograms/kg/injection, schedule: Q01DX005 (ip), vehicle: Klucel (hydroxypropylcellulose) (HPC)); 161 % of control and 162 % of control (dose: 25.0 micrograms/kg/injection, schedule: Q01DX005 (ip), vehicle: Klucel (hydroxypropylcellulose) (HPC)); 152 % of control (dose: 50.0 micrograms/kg/injection, schedule: Q01DX005 (ip), vehicle: Klucel (hydroxypropylcellulose) (HPC)).
For the molecule `CCC1=Nc2ccccc2C(c2ccccc2)NC1=O` (stereo not drawn), the T/C runs as follows: (dose: 60.0 mg/kg/injection, schedule: Q01DX005 (ip), vehicle: Klucel (hydroxypropylcellulose) (HPC)) 97 % of control; (dose: 120.0 mg/kg/injection, schedule: Q01DX005 (ip), vehicle: Klucel (hydroxypropylcellulose) (HPC)) 100 % of control; (dose: 240.0 mg/kg/injection, schedule: Q01DX005 (ip), vehicle: Klucel (hydroxypropylcellulose) (HPC)) 94 % of control.
Turning to `CCCC1OCC(CC)C(CCC)O1` (stereo not drawn), the T/C is 100 % of control (dose: 100.0 mg/kg/injection, schedule: Q01DX009 (ip), vehicle: saline with Tween-80); 100 % of control (dose: 100.0 mg/kg/injection, schedule: Q04DX003 (ip), vehicle: saline sonified); 100 % of control (dose: 200.0 mg/kg/injection, schedule: Q01DX009 (ip), vehicle: saline with Tween-80); 109 % of control (dose: 200.0 mg/kg/injection, schedule: Q04DX003 (ip), vehicle: saline sonified); 91 % of control (dose: 400.0 mg/kg/injection, schedule: Q01DX009 (ip), vehicle: saline with Tween-80); 109 % of control (dose: 400.0 mg/kg/injection, schedule: Q04DX003 (ip), vehicle: saline sonified).
On to `c1ccc(Nc2ncnc3ccccc23)cc1`, for which the T/C under setting [1] is 102 % of control, the T/C under setting [2] was 102 % of control and the T/C under setting [3] was 112 % of control.
On to `CC(C)CCC[C@@H](C)[C@H]1CC[C@H]2[C@@H]3CCC(=O)[C@](C)(CCC(=O)O)[C@H]3CC[C@]12C`, for which the T/C (dose: 6.25 mg/kg/injection, schedule: Q01DX009 (ip), vehicle: Klucel (hydroxypropylcellulose) (HPC)) was 96 % of control; the T/C (dose: 12.5 mg/kg/injection, schedule: Q01DX009 (ip), vehicle: Klucel (hydroxypropylcellulose) (HPC)) is 96 % of control; the T/C (dose: 25.0 mg/kg/injection, schedule: Q01DX009 (ip), vehicle: Klucel (hydroxypropylcellulose) (HPC)) is 92 % of control; the T/C under setting [1] is 87 % of control.
`S=C(Nc1ccc(Br)cc1)SCc1ccc(Cl)c(Cl)c1`: the T/C by setting is: (dose: 50.0 mg/kg/injection, schedule: Q01DX009 (ip), vehicle: suspension in saline) 105 % of control; (dose: 100.0 mg/kg/injection, schedule: Q01DX009 (ip), vehicle: suspension in saline) 111 % of control; (dose: 200.0 mg/kg/injection, schedule: Q01DX009 (ip), vehicle: suspension in saline) 110 % of control.
`[CH3][Sn]([CH3])([n]1nnc2ccccc21)[n]1nnc2ccccc21`: the T/C was 114 % of control (dose: 25.0 mg/kg/injection, schedule: Q01DX005 (ip), vehicle: Klucel (hydroxypropylcellulose) (HPC)); 115 % of control and 121 % of control (dose: 50.0 mg/kg/injection, schedule: Q01DX005 (ip), vehicle: Klucel (hydroxypropylcellulose) (HPC)); 112 % of control and 115 % of control (dose: 100.0 mg/kg/injection, schedule: Q01DX005 (ip), vehicle: Klucel (hydroxypropylcellulose) (HPC)); 112 % of control (dose: 200.0 mg/kg/injection, schedule: Q01DX005 (ip), vehicle: Klucel (hydroxypropylcellulose) (HPC)).
Turning to `C(=C/c1cc2ccc(C3=NCCN3)cc2o1)/c1cc2cc(C3=NCCN3)ccc2[nH]1`, the T/C (dose: 200.0 mg/kg/injection, schedule: Q04DX003 (ip), vehicle: suspension in saline) is 113 % of control.
As for `C/C=C(\C)C(=O)OC1CC(C)(C)C2C3C(=O)C=C(C)C2C3(C)C1OC(=O)/C(C)=C/C` (stereo not drawn), the T/C runs as follows: (dose: 75.0 mg/kg/injection, schedule: Q01DX001 (ip), vehicle: Klucel (hydroxypropylcellulose) (HPC)) 97 % of control; (dose: 150.0 mg/kg/injection, schedule: Q01DX001 (ip), vehicle: Klucel (hydroxypropylcellulose) (HPC)) 98 % of control; (dose: 300.0 mg/kg/injection, schedule: Q01DX001 (ip), vehicle: Klucel (hydroxypropylcellulose) (HPC)) 101 % of control.
As to `CC(C)N1COC(c2ccccc2)C1` (stereo not drawn), the T/C was 106 % of control and 88 % of control (dose: 12.5 mg/kg/injection, schedule: Q01DX005 (ip), vehicle: saline); 123 % of control and 96 % of control (dose: 25.0 mg/kg/injection, schedule: Q01DX005 (ip), vehicle: saline); 100 % of control and 110 % of control and 117 % of control (dose: 50.0 mg/kg/injection, schedule: Q01DX005 (ip), vehicle: saline); 124 % of control (dose: 100.0 mg/kg/injection, schedule: Q01DX005 (ip), vehicle: saline).
Regarding `Clc1ccc(CNc2ncnc3[nH]ncc23)cc1Cl`, the T/C reads like this: (dose: 100.0 mg/kg/injection, schedule: Q04DX003 (ip), vehicle: saline with Tween-80) 104 % of control; (dose: 200.0 mg/kg/injection, schedule: Q04DX003 (ip), vehicle: saline with Tween-80) 100 % of control; (dose: 400.0 mg/kg/injection, schedule: Q04DX003 (ip), vehicle: saline with Tween-80) 95 % of control.
For `CCOC(=O)c1cc(OC(C)=O)c2c(ccc3ccccc32)c1C`, the T/C is 95 % of control under setting [2]; 90 % of control under setting [3]; 95 % of control (dose: 400.0 mg/kg/injection, schedule: Q01DX009 (ip), vehicle: Klucel (hydroxypropylcellulose) (HPC)).
In the case of `COc1ccccc1CC(C)N` (stereo not drawn), the T/C by setting is: (dose: 20.0 mg/kg/injection, schedule: Q04DX003 (ip), vehicle: saline) 110 % of control; (dose: 40.0 mg/kg/injection, schedule: Q04DX003 (ip), vehicle: saline) 105 % of control; (dose: 80.0 mg/kg/injection, schedule: Q04DX003 (ip), vehicle: saline) 105 % of control.
On to `Cn1nccc1N`, for which the T/C is 117 % of control under setting [4] and 108 % of control under setting [5].
In the case of `C[N+]1(CI)CC2CC(C1)C[N+](C)(CI)C2` (stereo not drawn), the T/C was 105 % of control (dose: 12.5 mg/kg/injection, schedule: Q01DX009 (ip), vehicle: saline); 110 % of control under setting [4]; 108 % of control under setting [5].
Consider `CC(=O)NC1CCCCC1C1CCC(N)CC1` (stereo not drawn), for which the T/C under setting [6] is 99 % of control; the T/C under setting [7] was 102 % of control; the T/C (dose: 200.0 mg/kg/injection, schedule: Q01DX005 (ip), vehicle: saline with Tween-80) is 87 % of control.
Regarding `Cc1cccc(Nc2nnc3nc(-c4ccccc4)c(-c4ccccc4)nn23)c1`, the T/C reads like this: (dose: 25.0 mg/kg/injection, schedule: Q01DX001 (ip), vehicle: saline with Tween-80) 94 % of control; (dose: 50.0 mg/kg/injection, schedule: Q01DX001 (ip), vehicle: saline with Tween-80) 100 % of control; (dose: 100.0 mg/kg/injection, schedule: Q01DX001 (ip), vehicle: saline with Tween-80) 91 % of control and 95 % of control.
Take `COC1CCC(Sc2cccc[n+]2CC(C)=O)CC1OC` (stereo not drawn): the T/C is 100 % of control (dose: 12.5 mg/kg/injection, schedule: Q01DX005 (ip), vehicle: saline with Tween-80); 99 % of control (dose: 25.0 mg/kg/injection, schedule: Q01DX005 (ip), vehicle: saline with Tween-80); 98 % of control and 101 % of control under setting [6]; 102 % of control under setting [7].
As for `CCOC(=O)C1=C(Nc2ccc(Br)cc2)C(=O)N(CC)C1`, the T/C was 109 % of control (dose: 60.0 mg/kg/injection, schedule: Q01DX005 (ip), vehicle: saline with Tween-80); 100 % of control (dose: 120.0 mg/kg/injection, schedule: Q01DX005 (ip), vehicle: saline with Tween-80); 106 % of control (dose: 240.0 mg/kg/injection, schedule: Q01DX005 (ip), vehicle: saline with Tween-80).
